Patent US20130184273A1, “BICYCLIC PYRIMIDINES” (Bayer Intellectual Property GmbH, priority 2010, published 2013)

How the values were obtained:
[1] = tested on: KPL-4 breast cancer cell line; assay: Tumor cell proliferation assay (CellTiter-Glo); assay type: cell-based; conditions: KPL4, 72 h drug exposure
Description: Compounds were tested in a cell-based assay that measures the capacity of the compounds to inhibit tumour cell proliferation following a 72 h drug exposure. Cell viability is determined using CellTiter-Glow® (CTG, Promega, cat #G7571/2/3). The CellTiter-Glo® Luminescent Cell Viability Assay is a homogeneous method to determine the number of viable cells in culture. Detection is based on using the luciferase reaction to measure the amount of ATP from viable cells. The amount of ATP in cells correlates with cell viability. Within minutes after a loss of membrane integrity, cells lose the ability to synthesize ATP, and endogenous ATPases destroy any remaining ATP; thus the levels of ATP fall precipitously.
Cells were plated at 3000-5000 cells/well (depending on the cell lines) in 90 μL growth medium on MTPs (Corning; #3603, black plate, clear flat bottom). For each cell line assayed, cells were plated onto a separate plate for determination of […] at t=0 hour and t=72 hour time points. Following overnight incubation at 37° C., chemiluminescence values for the t=0 samples were determined after adding 10 μl medium and 100 μl CTG solution according to manufacture protocol. Plates for the t=72 hour time points were treated with compounds diluted into growth medium at ten times final concentration added in 10 μL to the cell culture plate. Cells were then incubated for 72 hours at 37° C. Chemiluminescence values for the t=72 hour samples were determined. […] Experiments were controlled using a reference compound as standard.

[2] = tested on: p-AKT S473 in PC3 human prostate tumours; assay: In vivo xenograft mechanism of action study; design: species or system athymic nude mice; conditions: PC3 tumours xenografted onto nude mice, treated once with 50 mg/kg p.o., 5 hours post treatment
Description: To this extent PC3 human prostate tumours were xenografted onto athymic nude mice. PC3 tumour cells were cultivated according to ATCC protocols in recommended media contained 10% FCS and harvested for transplantation in a subconfluent (70%) state. 3×10^6 tumour cells suspended in 50% Matrigel were subcutaneously implantated into the inguinal region of male mice. Tumours were allowed to grow to the predetermined size of 60-80 mm^2. When the tumours were approximately in size, the animals were randomized to treatment and control groups (groups size: 9 animals) and treatment was started. Animals were treated once with 50 mg/kg compound or vehicle per oral administration (p.o.) carried out via a gastric tube. Treatment of each animal was based on individual body weight. At 2, 5 and 24 hours post treatment 3 animals each were sacrificed and the PC3 tumours excised. Tumour samples of approximately 5×5×5 mm were lysed on ice in MSD lysis buffer in the presence of protease and phosphatase inhibitors using Tissue Lyzer (Qiagen, Germany). The levels of p-AKT S473 in extracts from tumour tissue were analysed in an ELISA based assay. This assay is based on the “Akt Duplex” of the MULTI-SPOT® Assay System (Fa. Meso Scale Discovery, Cat #N41100B-1) following manufacturers instructions. Each assay used 20 μg of protein extract and measured total AKT and p-AKT content simultaneously in one well. All measurements where at least done in duplicates and confirmed by independent repetition.
Values for P-AKT are expressed as percentage of P-AKT level compared to total-AKT content of the extracts. Vehicle treated tumours were analyzed to determine the basal level of P-AKT in this model and used as a normalization control to determine the % P-AKT relative to vehicle levels.

[3] = tested on: phospho-AKT at S473 in KPL4 breast tumour cell line; assay: Cellular p-AKT1/2/3-S473 assay; assay type: cell-based; conditions: KPL4 cells, treated with compounds for 2 hours; read-out: pAKT-S743 median IC50
Description: The molecular mechanism of action was investigated in a set of experiments to assess the inhibition of the PI3K-AKT-mTOR pathway in responsive cell lines such as KPL4 breast tumour cell line (PIK3CAH1047R, HER20/E and hormone independent). The phospho-substrates of PI3K-AKT-mTOR axis were used as the read-outs to reflect pathway inhibition. Cells were seeded at 60-80% confluency per well in 96-well cell culture plates. After overnight incubation at 37° C. 5% CO2, cells were treated with compounds and vehicle at 37° C. for 2 hours. Thereafter, cells were lysed in 150 μl lysis buffer and the levels of phospho-AKT at T308 and S473 and p-4E-BP1 at T70 sites were determined with the corresponding AlphaScreen® SureFire® assay kits (Perkin Elmer: 4E-BP1 Assay Kit Cat # TRG4E2S10K; Akt 1/2/3 p-Ser 473 #TGRA4S500 and Akt 1/2/3 p-Thr 308 #TGRA3S500 as well as IgG detection Kit #6760617M) as described in the manuals. All measurements where at least done in duplicates and confirmed by independent repetition.
Alternatively pAKT-S473 was measured using the “Akt Duplex” of the MULTI-SPOT® Assay System (Fa. Meso Scale Discovery, Cat#N41100B-1) following manufacturers instructions. Each assay used 20 μg of protein extract and measured total AKT and p-AKT content simultaneously in one well. All measurements where at least done in duplicates and confirmed by independent repetition. Values for P-AKT are expressed as percentage of P-AKT level compared to total-AKT content of the extracts.

Structure (SMILES) | IC50 [1] | P-AKT % relative to control at 5 hours [2] | IC50 [3]
Cc1nc2nc(-c3ccc(C4(N)CCC4)cc3)c(-c3ccccc3)cn2n1 [Example 1-0, 1-[4-(2-methyl-6-phenyl-[1,2,4]triazolo[1,5-a]pyrimidin-5-yl)-phenyl]-cyclobutylamine] | 3220 nM | 3.2% | 
Cc1cn2cc(-c3ccccc3)c(-c3ccc(C4(N)CCC4)cc3)nc2n1 [Example 2-1, 1-[4-(2-Methyl-6-phenyl-imidazo[1,2-a]pyrimidin-7-yl)-phenyl]-cyclobutylamine] | 1970 nM | 6.7% | 
CS(=O)(=O)c1ccc(-c2cnc3nc(-c4ccc(C5(N)CCC5)cc4)c(-c4ccccc4)cn23)cc1 [Example 4-0, 1-{4-[3-(4-Methansulfonyl-phenyl)-6-phenyl-imidazo[1,2-a]pyrimidin-7-yl]-phenyl}-cyclobutylamine] | 1270 nM |  | 230 nM
Cn1cc(-c2nc3nc(-c4ccc(C5(N)CCC5)cc4)c(-c4ccccc4)cn3n2)cn1 [Example 5-2, 1-{4-[2-(1-methyl-1H-pyrazol-4-yl)-6-phenyl-[1,2,4]triazolo[1,5-a]pyrimidin-5-yl]-phenyl}-cyclobutylamine] | 930 nM | 17.9% | 130 nM
NC1(c2ccc(-c3nc4ncc(-c5ccc(F)cc5)n4cc3-c3ccccc3)cc2)CCC1 [Example 6-0, 1-{4-[3-(4-Fluorophenyl)-6-phenyl-imidazo[1,2-a]pyrimidin-7-yl]-phenyl}-cyclobutylamine] | 2540 nM |  | 920 nM
NC(=O)c1cccc(-c2cnc3nc(-c4ccc(C5(N)CCC5)cc4)c(-c4ccccc4)cn23)c1 [Example 6-2, 3-{7-[4-(1-Amino-cyclobutyl)-phenyl]-6-phenyl-imidazo[1,2-a]pyrimidin-3-yl}-benzamide] | 10000 nM |  | 1150 nM
NC1(c2ccc(-c3nc4ncc(-c5cn[nH]c5)n4cc3-c3ccccc3)cc2)CCC1 [Example 6-3, 1-{4-[6-Phenyl-3-(1H-pyrazol-4-yl)-imidazo[1,2-a]pyrimidin-7-yl]-phenyl}-cyclobutylamine] | 5110 nM |  | 240 nM
